ChEMBL document CHEMBL1201862, “PubChem BioAssay data set” (2004)
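Five concentrations, 48 hours, 96-well plates. Here, GI50 denotes the concentration required for 50% inhibition of growth.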 Calls of active or inactive are those of the source. No stated cut-off is given here; in the data, active = GI50 up to about 1.1 µM and inactive = higher.

Columns and labels:
Test in all cases: NCI tumour cell line growth inhibition, 48 h
[1] = test system: NCI-H226
[2] = test system: UACC-257
[3] = test system: K562
[4] = test system: CCRF-CEM
[5] = test system: CAKI-1
[6] = test system: NCI-H460
[7] = test system: A549
[8] = test system: TK-10
[9] = test system: MDA-N
[10] = test system: BT-549
[11] = test system: RXF 393
[12] = test system: SK-OV-3
[13] = test system: OVCAR-3
[14] = test system: COLO 205
[15] = test system: KM12
[16] = test system: SNB-75
[17] = test system: SK-MEL-5
[18] = test system: M14
[19] = test system: SK-MEL-2
[20] = test system: IGROV-1

CC(C)(C)c1cc(C(P(=O)(c2ccccc2)c2ccccc2)P(=O)(c2ccccc2)c2ccccc2)cc(C(C)(C)C)c1O
GI50 [1]: 3.44 µM (inactive) | GI50 [2]: 2.04 µM (inactive) | GI50 [3]: 3.42 µM (inactive) | GI50 [4]: 2.21 µM (inactive) | GI50 [5]: 3.85 µM (inactive) | GI50 [6]: 2.11 µM (inactive) | GI50 [7]: 2.89 µM (inactive) | GI50 [8]: 4.68 µM (inactive) | GI50 [9]: 1.91 µM (inactive) | GI50 [10]: 3.36 µM (inactive) | GI50 [11]: 3.19 µM (inactive) | GI50 [12]: 3.11 µM (inactive) | GI50 [13]: 2.3 µM (inactive) | GI50 [14]: 1.87 µM (inactive) | GI50 [15]: 1.8 µM (inactive) | GI50 [16]: 2.71 µM (inactive) | GI50 [17]: 1.54 µM (inactive) | GI50 [18]: 1.75 µM (inactive) | GI50 [19]: 1.87 µM (inactive) | GI50 [20]: 3.12 µM (inactive)

CC(=O)CCC[C@@H](C)[C@@H]1O[C@H]([C@@]2(C)CCC(=O)O2)C[C@H]2C(CSc3ccccc3)C(=O)O[C@@H]12 (stereo not given in full)
GI50 [1]: 14.8 µM (inactive) | GI50 [2]: 13.4 µM (inactive) | GI50 [3]: 6.18 µM (inactive) | GI50 [4]: 3.3 µM (inactive) | GI50 [5]: 12.7 µM (inactive) | GI50 [6]: 20.7 µM (inactive) | GI50 [7]: 13.8 µM (inactive) | GI50 [8]: 12.6 µM (inactive) | GI50 [9]: 13.8 µM (inactive) | GI50 [10]: 11.6 µM (inactive) | GI50 [11]: 4.16 µM (inactive) | GI50 [12]: 44.7 µM (inactive) | GI50 [13]: 13.8 µM (inactive) | GI50 [14]: 15.6 µM (inactive) | GI50 [15]: 15.1 µM (inactive) | GI50 [16]: > 40.4 µM (inactive) | GI50 [17]: 21.4 µM (inactive) | GI50 [18]: 13.3 µM (inactive) | GI50 [19]: 17.3 µM (inactive) | GI50 [20]: 9.66 µM (inactive)

Cn1ccnc1Sc1ccc(/C=N/NC(=O)c2ccccc2O)cc1[N+](=O)[O-]
GI50 [1]: > 100 µM (inactive) | GI50 [2]: > 100 µM (inactive) | GI50 [3]: 0.298 µM (active) | GI50 [4]: 37.6 µM (inactive) | GI50 [5]: 72.8 µM (inactive) | GI50 [6]: 69.5 µM (inactive) | GI50 [7]: > 100 µM (inactive) | GI50 [8]: > 100 µM (inactive) | GI50 [9]: 61.5 µM (inactive) | GI50 [10]: 89.7 µM (inactive) | GI50 [11]: > 100 µM (inactive) | GI50 [12]: > 100 µM (inactive) | GI50 [13]: > 100 µM (inactive) | GI50 [14]: 22.2 µM (inactive) | GI50 [15]: > 100 µM (inactive) | GI50 [16]: > 100 µM (inactive) | GI50 [17]: 55.7 µM (inactive) | GI50 [18]: > 100 µM (inactive) | GI50 [19]: 37.8 µM (inactive) | GI50 [20]: 35.1 µM (inactive)

Clc1cc(Cl)cc(C2ON=C(c3ccccc3)N2C23CC4CC(CC(C4)C2)C3)c1 (stereo not given)
GI50 [1]: > 10 µM (inactive) | GI50 [2]: > 10 µM (inactive) | GI50 [3]: > 10 µM (inactive) | GI50 [4]: > 10 µM (inactive) | GI50 [5]: > 10 µM (inactive) | GI50 [6]: > 10 µM (inactive) | GI50 [7]: > 10 µM (inactive) | GI50 [8]: > 10 µM (inactive) | GI50 [9]: > 10 µM (inactive) | GI50 [10]: > 10 µM (inactive) | GI50 [11]: > 10 µM (inactive) | GI50 [12]: > 10 µM (inactive) | GI50 [13]: > 10 µM (inactive) | GI50 [14]: > 10 µM (inactive) | GI50 [15]: > 10 µM (inactive) | GI50 [16]: > 10 µM (inactive) | GI50 [17]: > 10 µM (inactive) | GI50 [18]: > 10 µM (inactive) | GI50 [19]: > 10 µM (inactive) | GI50 [20]: > 10 µM (inactive)

O=C(CCCN1CCC2(CC1)NC(=O)c1ccccc1O2)c1ccc(F)cc1
GI50 [1]: > 100 µM (inactive) | GI50 [2]: 55.5 µM (inactive) | GI50 [3]: 39.7 µM (inactive) | GI50 [4]: 90.4 µM (inactive) | GI50 [5]: > 100 µM (inactive) | GI50 [6]: > 100 µM (inactive) | GI50 [7]: > 100 µM (inactive) | GI50 [8]: 81.7 µM (inactive) | GI50 [9]: > 100 µM (inactive) | GI50 [10]: 46.6 µM (inactive) | GI50 [11]: 64.7 µM (inactive) | GI50 [12]: > 100 µM (inactive) | GI50 [13]: > 100 µM (inactive) | GI50 [14]: 50.1 µM (inactive) | GI50 [15]: > 100 µM (inactive) | GI50 [16]: > 100 µM (inactive) | GI50 [17]: 44.9 µM (inactive) | GI50 [18]: 87.7 µM (inactive) | GI50 [19]: > 100 µM (inactive) | GI50 [20]: > 100 µM (inactive)

CCCCC[C@@H]1OCO[C@@]2(C)/C=C(C)\C=C/C(=O)O[C@H]([C@@H](C)[C@@H](O)[C@H](C)[C@@]3(O)C[C@@H](O[C@H]4C[C@@H](O)[C@H](O)[C@@H](C)O4)[C@H](C)[C@@H](C)O3)[C@@H](OC)/C=C\C=C(\C)C[C@@H]1[C@@H]2O (stereo in doubt)
GI50 [1]: < 0.005 µM (active) | GI50 [2]: < 0.005 µM (active) | GI50 [3]: < 0.005 µM (active) | GI50 [4]: < 0.005 µM (active) | GI50 [5]: < 0.005 µM (active) | GI50 [6]: < 0.005 µM (active) | GI50 [7]: < 0.005 µM (active) | GI50 [8]: 0.119 µM (active) | GI50 [9]: < 0.005 µM (active) | GI50 [10]: 0.5 µM (active) | GI50 [11]: < 0.005 µM (active) | GI50 [12]: 1.35 µM (inactive) | GI50 [13]: < 0.005 µM (active) | GI50 [14]: < 0.005 µM (active) | GI50 [15]: < 0.005 µM (active) | GI50 [16]: < 0.005 µM (active) | GI50 [17]: < 0.005 µM (active) | GI50 [18]: < 0.005 µM (active) | GI50 [19]: < 0.005 µM (active) | GI50 [20]: < 0.005 µM (active)

Nc1nccc(-c2c[nH]c3cc(Br)ccc23)n1 [MERIDIANIN D]
GI50 [1]: 45.6 µM (inactive) | GI50 [2]: 30.2 µM (inactive) | GI50 [3]: 33.5 µM (inactive) | GI50 [4]: 41.1 µM (inactive) | GI50 [5]: 12.6 µM (inactive) | GI50 [6]: 30 µM (inactive) | GI50 [7]: 15.7 µM (inactive) | GI50 [8]: 22.3 µM (inactive) | GI50 [9]: 21 µM (inactive) | GI50 [10]: 31.2 µM (inactive) | GI50 [11]: 15.5 µM (inactive) | GI50 [12]: 29.1 µM (inactive) | GI50 [13]: 28.8 µM (inactive) | GI50 [14]: 18.7 µM (inactive) | GI50 [15]: 24.2 µM (inactive) | GI50 [16]: 20.5 µM (inactive) | GI50 [17]: 18.9 µM (inactive) | GI50 [18]: 24.5 µM (inactive) | GI50 [19]: 20 µM (inactive) | GI50 [20]: 23.7 µM (inactive)

C[C@H]1CC[C@]2(NC1)O[C@H]1C[C@H]3[C@@H]4CC[C@H]5C[C@@H](O[C@@H]6O[C@H](CO)[C@H](O[C@@H]7O[C@H](CO)[C@@H](O)[C@H](O[C@@H]8OC[C@@H](O)[C@H](O)[C@H]8O)[C@H]7O[C@@H]7O[C@H](CO)[C@@H](O)[C@H](O)[C@H]7O)[C@H](O)[C@H]6O)CC[C@]5(C)[C@H]4CC[C@]3(C)[C@H]1[C@@H]2C [TOMATINE]
GI50 [1]: 1.95 µM (inactive) | GI50 [2]: 2.12 µM (inactive) | GI50 [3]: 2.74 µM (inactive) | GI50 [4]: 2.52 µM (inactive) | GI50 [5]: 0.753 µM (active) | GI50 [6]: 2.18 µM (inactive) | GI50 [7]: 1.55 µM (inactive) | GI50 [8]: 1.54 µM (inactive) | GI50 [9]: 0.558 µM (active) | GI50 [10]: 2.37 µM (inactive) | GI50 [11]: 1.8 µM (inactive) | GI50 [12]: 1.61 µM (inactive) | GI50 [13]: 2.03 µM (inactive) | GI50 [14]: 2 µM (inactive) | GI50 [15]: 1.98 µM (inactive) | GI50 [16]: 1.86 µM (inactive) | GI50 [17]: 2.23 µM (inactive) | GI50 [18]: 1.43 µM (inactive) | GI50 [19]: 1.68 µM (inactive) | GI50 [20]: 0.729 µM (active)
